Laboratory results from patent US20250250251A1, “PIPERIDINYLPYRIDINYLCARBONITRILE DERIVATIVES AS INHIBITORS OF GLUTAMINYL-PEPTIDE CYCLOTRANSFERASE AND GLUTAMINYL-PEPTIDE CYCLOTRANSFERASE LIKE PROTEIN” (Boehringer Ingelheim International GmbH, priority 2024, published 2025).
pIC50: −log10 of the molar value.

system: SIRPα signalling induced by A549 cells; assay: Assay B: SIRPα signalling assay using A549 cells; assay type: cell-based; conditions: Homo sapiens, Table 4, compounds of the invention, read-out: Inhibition of SIRPα signalling induced by A549 cells: IC50
Protocol: Two cell types are independently used: the Raji cell line (lymphoblast-like human cell line derived from B lymphocytes from a Burkitt's lymphoma patient in 1963) and A549 cells (adenocarcinoma human alveolar basal epithelial cells).
Test compounds were dissolved in 100% DMSO and serially diluted into a white 384-well microtiter cell culture plate (PerkinElmer #60076780 in case of Raji assay; PDL-coated plates Greiner #781945 in case of A549 assay). 5000 Raji cells (ATCC #CC86) or 5000 A549 cells (ATCC #CCL-185) in Assay Complete Cell Plating reagent 30 (DiscoverX 93-0563R30B) were added per well. The assay plate was incubated for 48 h at 37° C., 95% humidity and 5% CO2. 15000 reporter cells (Jurkat PathHunter SIRPαV1, DiscoverX #93-1135C19) were added to each well, and the plate was incubated for 5 h at 37° C., 95% humidity and 5% CO2. Bioassay reagent 1 of the PathHunter Bioassay detection kit (DiscoverX 93-0001) was added to each well of the plate using a multichannel pipette followed by a 15 min incubation at room temperature. Afterwards bioassay reagent 2 was added followed by 60 min incubation at room temperature (incubation in the dark).
The analysis of the data was performed using the luminescence signal generated by beta-galactosidase in the PathHunter reporter cell line. The luminescence measurement was done using a Pherastar Multi-Mode Reader. Dose-response curves & IC50 data were calculated with 4-parameter sigmoidal dose response formula.

| Structure (SMILES) | pIC50 |
| --- | --- |
| Cc1ccc(-c2cc(C#N)c(N3CCC(F)(c4nncn4C)CC3)c(-c3cnc4nn(C(F)(F)F)cc4c3)n2)cn1 [Example 22] | 7.77 |
| Cn1cnnc1C1(F)CCN(c2c(C#N)cc(-c3cccnc3)nc2-c2cnc3nn(C(F)(F)F)cc3c2)CC1 [Example 21] | 7.62 |
| Cn1cnnc1C1(F)CCN(c2c(C#N)cc(C3CC3)nc2-c2ccnnc2)CC1 [Example 1] | 7.82 |

system: CYP3A4 mRNA; assay: Assay D: CYP induction screening assay in primary human hepatocytes; assay type: in vitro ADME; conditions: Table 9, compounds of the invention, 48 h
Protocol: Cryopreserved plateable human hepatocytes (single donor. BioIVT) were thawed and plated in Collagen-I coated 96-well-plates at a cell density of 0.07 million cells per well.
After a 6 h attachment period, the seeding medium was replaced by serum-free William's medium E supplemented with Matrigel (0.25 mg/ml) and allowed to recover overnight. 24 h post-seeding, serum-free Williams E medium containing the test compound at a final concentration of […] and a final DMSO content of 0.1% and 0.1% DMSO (solvent-treated control), respectively, was added to predefined wells. Exposure solutions were renewed after 24 h.
After 48 h of treatment in total, the effect of the test compounds on CYP3A4 mRNA expression was assessed using the QuantiGene Plex Gene Expression Assay. Hepatocytes were lysed and total RNA was extracted using the QuantiGene Sample Processing Kit according to the instructions of the manufacturer.
mRNA quantification was conducted using a customized QuantiGene Plex Panel to analyse CYP3A4 and the housekeeper genes RPL32, EIF4E2 and GUSB according to the instructions of the manufacturer and measured on a Luminex™ instrument. Signal was reported as median fluorescence intensity (MFI), which is proportional to the number of target RNA molecules present in the sample.
For calculation of CYP3A4 mRNA induction, the signal for CYP3A4 was normalized against the geometric mean of the signal obtained for the housekeeper genes for hepatocytes exposed to test compounds in relation to solvent-treated samples according to the following equation: […]

| Structure (SMILES) | n-fold induction of CYP3A4 at 10 μM |
| --- | --- |
| Cc1ccc(-c2cc(C#N)c(N3CCC(F)(c4nncn4C)CC3)c(-c3cnc4nn(C(F)(F)F)cc4c3)n2)cn1 [Example 22] | 0.5 n-fold |
| Cn1cnnc1C1(F)CCN(c2c(C#N)cc(-c3cccnc3)nc2-c2cnc3nn(C(F)(F)F)cc3c2)CC1 [Example 21] | 0.7 n-fold |
| Cn1cnnc1C1(F)CCN(c2c(C#N)cc(C3CC3)nc2-c2ccnnc2)CC1 [Example 1] | 1.2 n-fold |

target: T1, QPCTL (Homo sapiens, UniProt Q9NXS2); assay: Assay A: biochemical QPCTL activity assay (MALDI-TOF MS, CD47 peptide substrate); conditions: Table 2, compounds of the invention, read-out: Inhibition of QPCTL: IC50
T1 construct: made in house
Protocol: (§1) QPCT or QPCTL dependent conversion of N-terminal glutamine to pyroglutamate of CD47 was monitored via MALDI-TOF MS. Test compounds were dissolved in 100% DMSO and serially diluted into clear 1,536-well microtiter plates. Enzymatic reactions were set up in assay buffer containing 20 mM Tris pH 7.5, 0.1 mM TCEP, 0.01% BSA, and 0.001% Tween20. […] The plates were incubated for 10 min in a humidified incubator at 24° C. Subsequently, 2.5 μL of CD47 peptide substrate surrogate (^19[…]^33) was added to each well (final concentration: 10 μM for QPCTL/20 μM for QPCT). The plates were mixed for 30 sec at 1,000 rpm and subsequently incubated for 40 min in a humidified incubator at 24° C. […] The plates were sealed with an adhesive foil, mixed for 30 s at 1,000 rpm and stored at room temperature until preparation of the MALDI target plates. MALDI target plates were prepared as described previously. […] QPCT or QPCTL activity was monitored by calculating the ratio between product and internal standard signals followed by normalization to high (100% activity) and low (0% activity) controls. Determination of compound potencies was obtained by fitting the dose-response data to a four-parameter logistical equation.

T1 sequence (Q9NXS2 whole entry, species assumed): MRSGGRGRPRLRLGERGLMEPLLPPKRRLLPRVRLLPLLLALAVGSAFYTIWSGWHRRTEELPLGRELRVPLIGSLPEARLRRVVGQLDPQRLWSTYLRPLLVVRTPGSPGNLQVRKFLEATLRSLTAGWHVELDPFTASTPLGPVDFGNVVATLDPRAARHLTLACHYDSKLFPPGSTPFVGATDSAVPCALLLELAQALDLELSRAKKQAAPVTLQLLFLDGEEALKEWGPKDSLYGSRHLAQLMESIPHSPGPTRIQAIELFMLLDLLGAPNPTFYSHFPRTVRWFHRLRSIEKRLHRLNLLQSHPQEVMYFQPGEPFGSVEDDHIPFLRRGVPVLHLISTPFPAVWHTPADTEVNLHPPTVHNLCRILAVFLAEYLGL

| Structure (SMILES) | pIC50 |
| --- | --- |
| Cc1ccc(-c2cc(C#N)c(N3CCC(F)(c4nncn4C)CC3)c(-c3cnc4nn(C(F)(F)F)cc4c3)n2)cn1 [Example 22] | 9.00 |
| Cn1cnnc1C1(F)CCN(c2c(C#N)cc(-c3cccnc3)nc2-c2cnc3nn(C(F)(F)F)cc3c2)CC1 [Example 21] | 9.00 |
| Cn1cnnc1C1(F)CCN(c2c(C#N)cc(C3CC3)nc2-c2ccnnc2)CC1 [Example 1] | 9.00 |

system: not listed separately; assay: Assay C: permeability in CACO-2 cells; assay type: in vitro ADME; conditions: human, pH 7.2; Table 7, compounds of the invention, CACO-2 cells
Protocol: Caco-2 cells (1-2×10^5 cells/1 cm^2 area) are seeded on filter inserts (Costar transwell polycarbonate or PET filters, 0.4 μm pore size) and cultured (DMEM) for 10 to 25 days. Compounds are dissolved in appropriate solvent (like DMSO, 1-20 mM stock solutions). […] The transport solution (TL) is applied to the apical or basolateral donor side for measuring A-B or B-A permeability (3 filter replicates), respectively. Samples are collected at the start and end of experiment from the donor and at various time intervals for up to 2 hours also from the receiver side for concentration measurement by HPLC-MS/MS or scintillation counting. Sampled receiver volumes are replaced with fresh receiver solution.
Efflux ratio (ER)=permeability B−A/permeability A−B

| Structure (SMILES) | Papp A→B |
| --- | --- |
| Cc1ccc(-c2cc(C#N)c(N3CCC(F)(c4nncn4C)CC3)c(-c3cnc4nn(C(F)(F)F)cc4c3)n2)cn1 [Example 22] | 12 ×10⁻⁶ cm/s |
| Cn1cnnc1C1(F)CCN(c2c(C#N)cc(-c3cccnc3)nc2-c2cnc3nn(C(F)(F)F)cc3c2)CC1 [Example 21] | 6.8 ×10⁻⁶ cm/s |
| Cn1cnnc1C1(F)CCN(c2c(C#N)cc(C3CC3)nc2-c2ccnnc2)CC1 [Example 1] | 6.3 ×10⁻⁶ cm/s |

same assay, conditions: human, pH 7.2; Table 7, compounds of the invention, CACO-2 cells, permeability B-A/permeability A-B; read-out: Efflux Ratio

| Structure (SMILES) | efflux ratio |
| --- | --- |
| Cc1ccc(-c2cc(C#N)c(N3CCC(F)(c4nncn4C)CC3)c(-c3cnc4nn(C(F)(F)F)cc4c3)n2)cn1 [Example 22] | 6.8 |
| Cn1cnnc1C1(F)CCN(c2c(C#N)cc(-c3cccnc3)nc2-c2cnc3nn(C(F)(F)F)cc3c2)CC1 [Example 21] | 11.9 |
| Cn1cnnc1C1(F)CCN(c2c(C#N)cc(C3CC3)nc2-c2ccnnc2)CC1 [Example 1] | 7 |

system: murine hepatocytes; assay: Assay E: stability in murine hepatocytes; assay type: in vitro ADME, mouse; conditions: Table 12, compounds of the invention, 1 μM, 5% species serum
Protocol: The metabolic degradation of the test compound is assayed in a murine hepatocyte suspension.
Murine hepatocytes (typically cryopreserved) are incubated in an appropriate buffer system (e.g. Dulbecco's modified eagle medium plus 3.5 μg glucagon/500 mL, 2.5 mg insulin/500 mL and 3.75 mg/500 mL hydrocortison) containing 5% species serum.
Following a (typically) 30 min preincubation in an incubator (37° C., 10% CO2) 5 μl of test compound solution (80 μM; from 2 mM in DMSO stock solution diluted 1:25 with medium) are added into 395 μl hepatocyte suspension (cell density in the range 0.25-5 Mio cells/mL, typically 1 Mio cells/mL; final concentration of test compound 1 μM, final DMSO concentration 0.05%).
The cells are incubated for six hours (incubator, orbital shaker) and samples (25 μl) are taken at 0, 0.5, 1, 2, 4 and 6 hours. Samples are transferred into acetonitrile and pelleted by centrifugation (5 min). The supernatant is transferred to a new 96-deepwell plate, evaporated under nitrogen and resuspended.
Decline of parent compound is analyzed by HPLC-MS/MS
CLint is calculated as follows CL_[…]=Dose/AUC=(C0/CD)/(AUD+clast/k)×1000/60. C0: initial concentration in the incubation [μM], CD: cell density of vital cells [10e6 cells/mL], AUD: area under the data [μM×h], clast: concentration of last data point [μM], k: slope of the regression line for parent decline [h−1].
The calculated in vitro hepatic intrinsic clearance can be scaled up to the intrinsic in vivo hepatic Clearance and used to predict hepatic in vivo blood clearance (CL) by the use of a liver model (well stirred model).
[formula] [formula] [formula] • Hepatocellularity, mouse: 120×10e6 cells/g liver • Liver factor, mouse: 55 g/kg bodyweight • Blood flow, mouse: 90 ml/(min×kg)

| Structure (SMILES) | Mouse Hepatocyte Stability QH |
| --- | --- |
| Cc1ccc(-c2cc(C#N)c(N3CCC(F)(c4nncn4C)CC3)c(-c3cnc4nn(C(F)(F)F)cc4c3)n2)cn1 [Example 22] | 17% |
| Cn1cnnc1C1(F)CCN(c2c(C#N)cc(-c3cccnc3)nc2-c2cnc3nn(C(F)(F)F)cc3c2)CC1 [Example 21] | 35% |
| Cn1cnnc1C1(F)CCN(c2c(C#N)cc(C3CC3)nc2-c2ccnnc2)CC1 [Example 1] | 49% |

system: SIRPα signalling induced by Raji cells; assay: Assay B: SIRPα signalling assay using Raji cells; assay type: cell-based; conditions: Homo sapiens, Table 4, compounds of the invention, read-out: Inhibition of SIRPα signalling induced by Raji cells: IC50
Protocol: Bioassay reagent 1 of the PathHunter Bioassay detection kit (DiscoverX 93-0001) was added to each well of the plate using a multichannel pipette followed by a 15 min incubation at room temperature. Afterwards bioassay reagent 2 was added followed by 60 min incubation at room temperature (incubation in the dark).
The analysis of the data was performed using the luminescence signal generated by beta-galactosidase in the PathHunter reporter cell line. The luminescence measurement was done using a Pherastar Multi-Mode Reader.

| Structure (SMILES) | pIC50 |
| --- | --- |
| Cc1ccc(-c2cc(C#N)c(N3CCC(F)(c4nncn4C)CC3)c(-c3cnc4nn(C(F)(F)F)cc4c3)n2)cn1 [Example 22] | 6.89 |
| Cn1cnnc1C1(F)CCN(c2c(C#N)cc(-c3cccnc3)nc2-c2cnc3nn(C(F)(F)F)cc3c2)CC1 [Example 21] | 7.11 |
| Cn1cnnc1C1(F)CCN(c2c(C#N)cc(C3CC3)nc2-c2ccnnc2)CC1 [Example 1] | 6.97 |

target: T2, QPCT (Homo sapiens, UniProt Q16769); assay: Assay A: biochemical QPCT activity assay (MALDI-TOF MS, CD47 peptide substrate); conditions: Table 2, compounds of the invention, read-out: Inhibition of QPCT: IC50
T2 construct: purchased Origine (OriGene) TP700028
Protocol: as §1

T2 sequence (Q16769 29-361): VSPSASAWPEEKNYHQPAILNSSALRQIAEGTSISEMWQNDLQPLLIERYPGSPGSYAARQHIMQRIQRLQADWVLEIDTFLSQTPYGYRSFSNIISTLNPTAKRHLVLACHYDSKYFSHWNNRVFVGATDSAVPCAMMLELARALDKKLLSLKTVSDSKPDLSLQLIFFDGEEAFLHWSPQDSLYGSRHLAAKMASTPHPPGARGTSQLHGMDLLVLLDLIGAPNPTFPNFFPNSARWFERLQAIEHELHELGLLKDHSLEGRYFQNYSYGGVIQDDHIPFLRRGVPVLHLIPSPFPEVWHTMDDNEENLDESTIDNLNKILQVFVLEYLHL

| Structure (SMILES) | pIC50 |
| --- | --- |
| Cc1ccc(-c2cc(C#N)c(N3CCC(F)(c4nncn4C)CC3)c(-c3cnc4nn(C(F)(F)F)cc4c3)n2)cn1 [Example 22] | 8.52 |
| Cn1cnnc1C1(F)CCN(c2c(C#N)cc(-c3cccnc3)nc2-c2cnc3nn(C(F)(F)F)cc3c2)CC1 [Example 21] | 8.70 |
| Cn1cnnc1C1(F)CCN(c2c(C#N)cc(C3CC3)nc2-c2ccnnc2)CC1 [Example 1] | 8.70 |
